Reference: patent US11407738B2 (Achillion Pharmaceuticals, Inc., priority 2015, dated 2022)

These compounds were tested against Human Factor D (Homo sapiens (Human), UniProt P00746) (assay: Human Factor D assay). Conditions: Table 4; Factor D inhibition, substrate Z-L-Lys-SBzl.
Assay type: biochemical
Outline: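 Serum-purified human factor D (80 nM final) preincubated 5 min at room temperature with test compound in 50 mM Tris, 1M NaCl, pH 7.5. Z-L-Lys-SBzl substrate and DTNB then added, each at 100 μM final. IC50 from nonlinear regression of reaction rate against compound concentration.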

Human Factor D, sequence (P00746 26-253): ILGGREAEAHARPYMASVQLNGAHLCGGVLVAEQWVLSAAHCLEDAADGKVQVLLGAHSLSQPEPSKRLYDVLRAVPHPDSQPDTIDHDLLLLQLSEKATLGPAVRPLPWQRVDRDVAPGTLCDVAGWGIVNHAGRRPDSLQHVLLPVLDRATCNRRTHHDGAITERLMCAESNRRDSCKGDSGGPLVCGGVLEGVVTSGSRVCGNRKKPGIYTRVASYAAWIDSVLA

CC(=O)c1nn(CC(=O)N2C[C@H](F)C[C@H]2C(=O)Nc2cccc(-c3ccccc3Cl)c2F)c2ccc(N3CCn4c(nnc4C(F)(F)F)C3)cc12 [Compound 619, (2S,4R)-1-(2-(3-acetyl-5-(3-(trifluoromethyl)-5,6-dihydro-[1,2,4]triazolo[4,3-a]pyrazin-7(8H)-yl)-1H-indazol-1-yl)acetyl)-N-(2′-chloro-2-fluoro-[1,1′-biphenyl]-3-yl)-4-fluoropyrrolidine-2-carboxamide] and CC(=O)c1nn(CC(=O)N2C[C@H](F)C[C@H]2C(=O)Nc2cccc(-c3ccc4scnc4c3)c2F)c2ccc(-c3cnc(C)nc3)cc12 [Compound 638, (2S,4R)-1-(2-(3-acetyl-5-(2-methylpyrimidin-5-yl)-1H-indazol-1-yl)acetyl)-N-(3-(benzo[d]thiazol-5-yl)-2-fluorophenyl)-4-fluoropyrrolidine-2-carboxamide] cannot be ordered by IC50: under 1 µM for the first, under 1 µM for the second.

First: CC(=O)c1nn(CC(=O)N2C[C@H](F)C[C@H]2C(=O)Nc2cccc(Br)n2)c2ccc(N3C[C@H]4CCCC[C@H]4C3)cc12 [Compound 621, (2S,4R)-1-(2-(3-acetyl-5-((3aR,7aS)-hexahydro-1H-isoindol-2(3H)-yl)-1H-indazol-1-yl)acetyl)-N-(6-bromopyridin-2-yl)-4-fluoropyrrolidine-2-carboxamide]
Second: Cc1ncc(-c2ccc3c(c2)c(C(=O)CP(=O)(O)O)nn3CC(=O)N2C[C@H](F)C[C@H]2C(=O)Nc2cccc(Br)n2)cn1 [Compound 626, (2-(1-(2-((2S,4R)-2-((6-bromopyridin-2-yl)carbamoyl)-4-fluoropyrrolidin-1-yl)-2-oxoethyl)-5-(2-methylpyrimidin-5-yl)-1H-indazol-3-yl)-2-oxoethyl)phosphonic acid]
The IC50 of the first is lower: under 1 µM for the first, over 10 µM for the second. The first is the more potent here.

First: COP(=O)(CC(=O)c1nn(CC(=O)N2C[C@H](F)C[C@H]2C(=O)Nc2cccc(Br)n2)c2ccc(-c3cnc(C)nc3)cc12)OC [Compound 625, dimethyl (2-(1-(2-((2S,4R)-2-((6-bromopyridin-2-yl)carbamoyl)-4-fluoropyrrolidin-1-yl)-2-oxoethyl)-5-(2-methylpyrimidin-5-yl)-1H-indazol-3-yl)-2-oxoethyl)phos-phonate]
Second: CC(=O)c1cc(CC(=O)N2C[C@H](F)C[C@H]2C(=O)Nc2cccc(Br)n2)n2ccc(-c3cnc(C)nc3)cc12 [Compound 643]
The IC50 of the first is higher: over 10 µM for the first, under 1 µM for the second.

First: CCOP(=O)(OCC)OC[C@@]12C[C@@H]1N(C(=O)Cn1nc(C(C)=O)c3cc(-c4cnc(C)nc4)ccc31)[C@H](C(=O)Nc1cccc(Br)n1)C2 [Compound 628, ((1S,3S,5R)-2-(2-(3-acetyl-5-(2-methylpyrimidin-5-yl)-1H-indazol-1-yl)acetyl)-3-((6-bromopyridin-2-yl)carbamoyl)-2-azabicyclo[3.1.0]hex-an-5-yl)methyl diethyl phosphate]
Second: CC(=O)c1nn(CC(=O)N2CCC[C@@H](C(=O)NCc3cccc(Br)n3)C2)c2ccc(-c3cnc(C)nc3)cc12 [Compound 642]
The IC50 of the first is lower: 1 to 10 µM for the first, over 10 µM for the second. The first is the more potent here.

First: CC(=O)c1nn(CC(=O)N2C[C@H](F)C[C@H]2CNCc2cccc(Cl)c2F)c2ccc(-c3cnc(C)nc3)cc12 [Compound 630, 2-(3-Acetyl-5-(2-methylpyrimidin-5-yl)-1H-indazol-1-yl)-1-((2S,4R)-2-(((3-chloro-2-fluorobenzyl)amino)methyl)-4-fluoropyrrolidin-1-yl)ethan-1-one]
Second: Cc1ncc(-c2ccc3c(c2)c(C(C)O)nn3CC(=O)N2C[C@H](F)C[C@H]2C(=O)O)cn1 (stereo partly drawn) [Compound 631, (2S,4R)-4-Fluoro-1-(2-(3-(1-hydroxyethyl)-5-(2-methylpyrimidin-5-yl)-11-indazol-1-yl)acetyl)pyrrolidine-2-carboxylic Acid]
The IC50 of the first is lower: 1 to 10 µM for the first, over 10 µM for the second.

Going from COC(=O)[C@@H]1C[C@@H](F)CN1C(=O)Cn1nc(C(C)O)c2cc(-c3cnc(C)nc3)ccc21 (stereo partly drawn) [Compound 633, Methyl (2S,4R)-4-fluoro-1-(2-(3-(1-hydroxyethyl)-5-(2-methylpyrimidin-5-yl)-1H-indazol-1-yl)acetyl)pyrrolidine-2-carboxylate] to CC(=O)c1nn(CC(=O)N2C[C@H](F)C[C@H]2C(=O)Nc2cccc(-c3ccc4scnc4c3)c2F)c2ccc(-c3cnc4cc(C)nn4c3)cc12 [Compound 639, (2S,4R)-1-(2-(3-acetyl-5-(4-methylpyrazolo[1,5-a]pyrimidin-6-yl)-1H-indazol-1-yl)acetyl)-N-(3-(benzo[d]thiazol-5-yl)-2-fluorophenyl)-4-fluoropyrrolidine-2-carboxamide], the IC50 falls from over 10 µM to under 1 µM.

First: COc1cc(CC(=O)N2C[C@H](F)C[C@H]2C(=O)Nc2cccc(-c3ccccc3Cl)c2F)cc(-c2cnc(C)nc2)c1 [Compound 636, (2S,4R)—N-(2′-chloro-2-fluoro-[1,1′-biphenyl]-3-yl)-4-fluoro-1-(2-(3-methoxy-5-(2-methylpyrimidin-5-yl)phenyl)acetyl)pyrrolidine-2-carboxamide]
Second: Cc1cc2ncc(-c3nc4c(s3)c(C(N)=O)nn4CC(=O)N3C[C@H](F)C[C@H]3C(=S)NC3CCC(c4cc5sccc5s4)C3)cn2n1 (stereo partly drawn) [Compound 640, 1-(2-((2S,4R)-4-fluoro-2-((3-(thieno[3,2-b]thiophen-2-yl)cyclopentyl)carba-mothioyl)pyrrolidin-1-yl)-2-oxoethyl)-5-(2-methylpyrazolo[1,5-a]pyrimidin-6-yl)-1H-pyrazolo[3,4-d]thiazole-3-carboxamide]
The IC50 of the first is lower: under 1 µM for the first, over 10 µM for the second.
